Results reported in patent US20150196500A1, “Treatment of Mitochondria-Related Diseases and Improvement of Age-Related Metabolic Deficits” (PHILERA NEW ZEALAND LIMITED, priority 2005, published 2015).
Entries after “also recorded” stand apart in the source; their conditions may differ. Where two headings read alike, the source gives them in different places.

Legend:
[1] = test system: mitochondria isolated from hearts of obese ZDF rats and lean littermates; format: cell-based, rat
[2] = test system: cytochrome c release from mitochondria isolated from lean (non-diabetic) ZDF rats; assay: Cytochrome c release from isolated mitochondria, Western blot; format: cell-based, rat; settings: for cytochrome c release into supernatant: 5 mM alone, 30 min incubation
[3] = test system: citrate synthase in mitochondria isolated from lean (non-diabetic) ZDF rats; assay: Residual citrate synthase activity in mitochondrial pellets (marker of inner membrane integrity); format: cell-based, rat
Experimental: An enzyme assay was then used to evaluate the mitochondrial pellets to determine the contents of the matrix protein citrate synthase in order to evaluate the integrity of the mitochondria after the respective incubations. Citrate synthase activity was determined according to the methods decscribed in Newsholme and Crabtree, J. Exp. Zoo. 239(2): 159-67 (1986). In brief, frozen mitochondrial pellets were resuspended in a reaction mixture containing 50 mM Tris-HCl (pH8.0), 0.1 mM acetyl coenzyme A and 0.2 mM 5,5′-dithiobis-(2-nitrobenzoic acid) (DTNB). Reactants were incubated for five minutes prior to measurement and the assay started by the addition of 5 mM oxaloacetate. Absorbance of DTNB was then followed at 412 nm and units were calculated relative to soluble protein using the biccichonic acid method (BCA, Pierce) with bovine serum albumin as standard.

[4] = test system: electron transport chain complexes I to V of left ventricle mitochondria; settings: rat, in vivo
Experimental: Male Wistar rats (starting body weight from about 200 to about 250 g) were maintained on Teklad TB 2108 (Harlan UK) rat chow and tap water ab libitum. At eight weeks the rats were randomized into two groups: control and diabetic (STZ). Rats were made diabetic by injection with 60 mg/kg STZ and the control rats were given a corresponding amount of 0.9% sodium chloride.
The control groups received Milli-Q water ab libitum during the corresponding period. At the end of the eleven week treatment period, rats were anaesthetized with isoflurane, the abdominal cavity was opened and a catheter inserted into the vena cava. Approximately 1 mL of blood was removed for future analysis and 10000 U/Kg heparin infused. […]
Fiber respiration was then measured in a respirometer at 30° C. at high resolution using Clark-type electrodes and integrated software that was used for data acquisition and analysis (DatLab 4, Oroboros, Oxygraph; Innsbruck, Austria). […] Respiratory rates (oxygen fluxes) were expressed as pmol O2. […]
Respiratory flux rates through complex I (GM2 and GM3), complexes I and II (GMS3) and II (S3) were determined to measure the intactness of the individual complexes (GM3 and S3), and to estimate maximal flux rates through the electron transport chain.

[5] = in the presence of 5 mM spermine

Compound	change in mitochondrial volume ([1]; 0-5 mM, no CaCl2, 30 minutes, diabetic or control mitochondria)	effect on swelling at concentrations above 0.625 mM ([1]; 150 μM CaCl2, mitochondria from obese and lean rats)	cytochrome c release into supernatant [2]	cytochrome c release on co-incubation with 5 mM spermine ([2]; 5 mM spermine plus test polyamine)	concentration dependence of diminished cytochrome c release ([2]; […] vs 5 mM, with 5 mM spermine)	residual citrate synthase activity ([3]; 5 mM alone, after 30 min)	citrate synthase activity in spermine treated mitochondria [3, 5]	relative potency in improving residual citrate synthase activity [3, 5]	change in mitochondrial volume [1]	effect on swelling at concentrations above 0.625 mM [1]	relative inhibition of Ca2+ induced swelling among the three polyamines [1]	incubation time to maximum release of cytochrome c ([2]; data not shown) [min]	residual citrate synthase activity ([3]; 5 mM alone)	residual citrate synthase activity ([3]; lower concentrations than 5 mM)	cytochrome C oxidase flux (TMPD plus ascorbate) [4]	respiration flux rates of control treated mitochondria [4]
NCCCCNCCCN [spermidine]	no detectable change in mitochondrial volume	continued to have a protective effect; also recorded: continue to protect mitochondria from swelling	caused cytochrome c release at 5 mM, albeit less than in the case of spermine	reduced, though to a lesser degree; also recorded: diminished cytochrome c release	less potent than when 5 mM was used	increased amounts of residual citrate synthase activity compared to control samples	improved citrate synthase activity, although not as effectively; also recorded: capable of improving residual citrate synthase activity	markedly less potent than triethylenetetramine dihydrochloride	–	–	–	–	–	–	–	–
NCCCNCCCCNCCCN [spermine]	–	–	release of large amounts of cytochrome c	–	–	–	–	–	led to swelling of mitochondria	induced swelling; also recorded: appears to induce swelling	greatest inhibition of swelling	30	rapid loss of citrate synthase activity	less severe impact on the residual citrate synthase activity	–	–
NCCNCCNCCN.O=C(O)CCC(=O)O.O=C(O)CCC(=O)O [triethylenetetramine disuccinate]	–	–	–	–	–	–	–	–	–	–	–	–	–	–	significant improvement in cytochrome C oxidase	No significant effect
